Experimental data taken from ChEMBL document CHEMBL3044992, “Design, synthesis, and docking studies of novel ofloxacin analogues as antimicrobial agents” (2012).
≈ marks a conversion by molar mass, not a printed value.

Key:
Type in all cases: functional
Candida albicans [1] = test: Antifungal activity against Candida albicans at 25 ug/ml after 48 hr […]; details: read-out: IZ
Escherichia coli = test: Antibacterial activity against Escherichia coli after 24 hr by two-fold serial dilution method
[2] = tested on: Staphylococcus epidermidis; test: Antibacterial activity against Staphylococcus epidermidis after 24 hr by two-fold serial dilution method
Klebsiella pneumoniae = test: Antibacterial activity against Klebsiella pneumoniae after 24 hr by two-fold serial dilution method
Pseudomonas aeruginosa = test: Antibacterial activity against Pseudomonas aeruginosa after 24 hr by two-fold serial dilution method
Candida albicans [3] = test: Antifungal activity against Candida albicans at 100 ug/ml after 48 hr […]; details: read-out: IZ
Bacillus subtilis = test: Antibacterial activity against Bacillus subtilis after 24 hr by two-fold serial dilution method
Staphylococcus aureus = test: Antibacterial activity against Staphylococcus aureus after 24 hr by two-fold serial dilution method
Candida albicans [4] = test: Antifungal activity against Candida albicans at 50 ug/ml after 48 hr […]; details: read-out: IZ

SMILES	MIC (Escherichia coli) [µg/mL]	MIC [2] [µg/mL]	MIC (Klebsiella pneumoniae) [µg/mL]	MIC (Pseudomonas aeruginosa) [µg/mL]	MIC (Bacillus subtilis) [µg/mL]	MIC (Staphylococcus aureus) [µg/mL]	zone of inhibition at 25 µg/mL (Candida albicans [1]) [mm]	zone of inhibition at 100 µg/mL (Candida albicans [3]) [mm]	zone of inhibition at 50 µg/mL (Candida albicans [4]) [mm]
CC1COc2c(N3CCN(C)CC3)c(F)cc3c(=O)c(-c4nn(CCC(=O)Cc5cccc([N+](=O)[O-])c5)c(=S)n4N)cn1c23 (stereo not given)	1 (≈ 1.61 µM)	0.5 (≈ 0.803 µM)	0.12 (≈ 0.193 µM)	0.25 (≈ 0.401 µM)	0.5 (≈ 0.803 µM)	0.25 (≈ 0.401 µM)	16	21	18
COc1ccc(/C=N/NC(=O)c2cn3c4c(c(N5CCN(C)CC5)c(F)cc4c2=O)OCC3C)cc1 (stereo not given)	0.5 (≈ 1.01 µM)	0.25 (≈ 0.507 µM)	0.5 (≈ 1.01 µM)	0.5 (≈ 1.01 µM)	0.5 (≈ 1.01 µM)	0.125 (≈ 0.253 µM)	18	23	20
CC1COc2c(N3CCN(C)CC3)c(F)cc3c(=O)c(-c4nn(CCC(=O)c5ccccc5)c(=S)o4)cn1c23 (stereo not given)	1 (≈ 1.82 µM)	0.5 (≈ 0.91 µM)	0.25 (≈ 0.455 µM)	2 (≈ 3.64 µM)	0.5 (≈ 0.91 µM)	0.25 (≈ 0.455 µM)	16	22	19
CC1COc2c(N3CCN(C)CC3)c(F)cc3c(=O)c(-c4nn(CCC(=O)c5ccc(N)cc5)c(=S)o4)cn1c23 (stereo not given)	0.25 (≈ 0.443 µM)	0.5 (≈ 0.886 µM)	0.5 (≈ 0.886 µM)	0.5 (≈ 0.886 µM)	0.5 (≈ 0.886 µM)	0.25 (≈ 0.443 µM)	17	21	18
CC(=O)CCn1nc(-c2cn3c4c(c(N5CCN(C)CC5)c(F)cc4c2=O)OCC3C)oc1=S (stereo not given)	0.25 (≈ 0.513 µM)	0.25 (≈ 0.513 µM)	0.12 (≈ 0.246 µM)	0.25 (≈ 0.513 µM)	0.5 (≈ 1.03 µM)	0.25 (≈ 0.513 µM)	15	22	18
CC(=O)CCn1nc(-c2cn3c4c(c(N5CCN(C)CC5)c(F)cc4c2=O)OCC3C)n(N)c1=S (stereo not given)	0.5 (≈ 0.997 µM)	0.5 (≈ 0.997 µM)	0.12 (≈ 0.239 µM)	0.5 (≈ 0.997 µM)	0.5 (≈ 0.997 µM)	3.12 (≈ 6.23 µM)	16	22	18
CC1COc2c(N3CCN(C)CC3)c(F)cc3c(=O)c(-c4nn(CCC(=O)c5ccccc5O)c(=S)n4N)cn1c23 (stereo not given)	1 (≈ 1.73 µM)	0.5 (≈ 0.863 µM)	0.12 (≈ 0.207 µM)	0.5 (≈ 0.863 µM)	0.5 (≈ 0.863 µM)	0.25 (≈ 0.431 µM)	15	21	17
CC1COc2c(N3CCN(C)CC3)c(F)cc3c(=O)c(C(=O)O)cn1c23 (stereo not given) [OFLOXACIN]	–	0.5 (≈ 1.38 µM)	0.06 (≈ 0.166 µM)	–	1 (≈ 2.77 µM)	0.25 (≈ 0.692 µM)	21	28	26

The next lines start with results.

MIC (Escherichia coli) [µg/mL]	MIC [2] [µg/mL]	MIC (Klebsiella pneumoniae) [µg/mL]	MIC (Pseudomonas aeruginosa) [µg/mL]	MIC (Bacillus subtilis) [µg/mL]	MIC (Staphylococcus aureus) [µg/mL]	SMILES	zone of inhibition at 25 µg/mL (Candida albicans [1]) [mm]	zone of inhibition at 100 µg/mL (Candida albicans [3]) [mm]	zone of inhibition at 50 µg/mL (Candida albicans [4]) [mm]
0.5 (≈ 1 µM)	0.5 (≈ 1 µM)	0.12 (≈ 0.241 µM)	0.25 (≈ 0.502 µM)	0.5 (≈ 1 µM)	0.125 (≈ 0.251 µM)	CC1COc2c(N3CCN(C)CC3)c(F)cc3c(=O)c(C(=O)N/N=C/c4ccccc4Cl)cn1c23 (stereo not given)	16	22	18
1 (≈ 2.09 µM)	0.25 (≈ 0.521 µM)	1 (≈ 2.09 µM)	0.12 (≈ 0.25 µM)	0.5 (≈ 1.04 µM)	0.25 (≈ 0.521 µM)	CC1COc2c(N3CCN(C)CC3)c(F)cc3c(=O)c(C(=O)N/N=C/c4ccccc4O)cn1c23 (stereo not given)	15	21	18
1 (≈ 2.48 µM)	0.25 (≈ 0.62 µM)	1 (≈ 2.48 µM)	1 (≈ 2.48 µM)	0.5 (≈ 1.24 µM)	0.25 (≈ 0.62 µM)	CC1COc2c(N3CCN(C)CC3)c(F)cc3c(=O)c(C(=O)NNC=O)cn1c23 (stereo not given)	18	23	21
0.5 (≈ 0.983 µM)	0.25 (≈ 0.492 µM)	0.5 (≈ 0.983 µM)	0.5 (≈ 0.983 µM)	0.5 (≈ 0.983 µM)	0.25 (≈ 0.492 µM)	CC1COc2c(N3CCN(C)CC3)c(F)cc3c(=O)c(C(=O)N/N=C/c4cccc([N+](=O)[O-])c4)cn1c23 (stereo not given)	15	20	17
1 (≈ 2.16 µM)	0.25 (≈ 0.539 µM)	0.25 (≈ 0.539 µM)	1 (≈ 2.16 µM)	0.5 (≈ 1.08 µM)	0.125 (≈ 0.27 µM)	CC1COc2c(N3CCN(C)CC3)c(F)cc3c(=O)c(C(=O)N/N=C/c4ccccc4)cn1c23 (stereo not given)	15	21	18
